Data from patent publication US20260355192A1, “PROPHYLACTIC OR THERAPEUTIC AGENT FOR PERIOSTIN-MEDIATED DISEASE AND PRURITUS ASSOCIATED THEREWITH” (SAGA UNIVERSITY, priority 2022, published 2026).

Assays:
[1] = tested on: scratching behaviors in FADS mice; assay: Scratching behaviors in FADS mice upon single systemic administration of CP4715; type: in vivo, mouse (FADS, Nestin-cre/Ikk2ff); conditions: 53.7 μmol/kg i.p., FIG. 2
Source text: Nestin-cre transgenic mice were crossed with IKK2^ff mice to prepare Nestin-cre/Ikk2^ff mice specifically lacking IKK2 in their facial skin fibroblasts (Nunomura S, et al. J Invest Dermatol. 139:1274-1283, 2019). These mice inevitably develop atopic dermatitis-like rash limited to the face and intense itchy symptoms, and were therefore designated as Facial Atopic Dermatitis with Scratching (FADS) mice. […] For evaluation of the prophylactic or therapeutic agent of the present invention, FADS mice at 3 to 4 weeks of age or older were used because of showing spontaneous scratching behaviors. […]
FADS mice were acclimated for 20 minutes to the environment of a recording cage, and then recorded with a video camera. The recorded videos were replayed, and scratching behaviors were counted assuming that hind paw scratching to the face and the subsequent movement of toe licking or paw lowering to the ground were regarded as one cycle of scratching behavior.
Prior to CP4715 administration, FADS mice were recorded for 60 minutes and then allowed to rest for 30 minutes. […] Mice administered with 0.3 mL of PBS containing an equal amount of the diluent as calculated based on the body weight were used as a control group.
The mice were recorded for 80 minutes immediately after drug administration. […]

[2] = molecular target: T1, integrin αvβ3 (Homo sapiens, UniProt P05106+P06756); assay: Inhibition of periostin-dependent adhesion of SW480 cells expressing integrin αvβ3; type: cell-based; conditions: immobilized recombinant human periostin, FIG. 6
T1 construct: SW480 cells, a human colon cancer cell line not expressing integrin β3; expressed in transfected cells; host or cells: SW480 cells (human colon cancer) stably expressing human integrin β3
T1 sequence (P06756 31-889 limits assumed): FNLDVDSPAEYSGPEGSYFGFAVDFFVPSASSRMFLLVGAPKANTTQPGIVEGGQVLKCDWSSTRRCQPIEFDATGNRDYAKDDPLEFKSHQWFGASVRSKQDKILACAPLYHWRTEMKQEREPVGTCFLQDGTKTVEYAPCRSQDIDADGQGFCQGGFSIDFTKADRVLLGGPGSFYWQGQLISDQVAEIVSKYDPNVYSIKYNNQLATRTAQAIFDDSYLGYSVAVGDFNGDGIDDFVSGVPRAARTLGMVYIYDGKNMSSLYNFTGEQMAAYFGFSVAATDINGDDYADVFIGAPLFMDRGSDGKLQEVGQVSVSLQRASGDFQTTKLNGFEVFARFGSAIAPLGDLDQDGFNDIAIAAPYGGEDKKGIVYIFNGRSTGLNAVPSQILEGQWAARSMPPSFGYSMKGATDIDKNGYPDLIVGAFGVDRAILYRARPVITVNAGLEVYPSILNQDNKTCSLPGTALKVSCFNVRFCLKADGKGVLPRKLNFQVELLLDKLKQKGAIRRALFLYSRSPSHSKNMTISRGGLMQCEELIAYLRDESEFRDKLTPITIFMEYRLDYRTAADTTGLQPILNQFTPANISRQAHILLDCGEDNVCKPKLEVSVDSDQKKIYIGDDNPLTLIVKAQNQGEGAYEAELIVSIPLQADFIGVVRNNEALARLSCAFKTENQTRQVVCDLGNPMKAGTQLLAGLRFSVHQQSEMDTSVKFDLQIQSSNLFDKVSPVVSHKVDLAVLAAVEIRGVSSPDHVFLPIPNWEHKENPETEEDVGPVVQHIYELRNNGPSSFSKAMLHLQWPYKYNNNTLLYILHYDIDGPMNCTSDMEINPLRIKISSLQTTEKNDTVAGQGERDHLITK
T1 sequence (P06756 891-1048 partner limits assumed): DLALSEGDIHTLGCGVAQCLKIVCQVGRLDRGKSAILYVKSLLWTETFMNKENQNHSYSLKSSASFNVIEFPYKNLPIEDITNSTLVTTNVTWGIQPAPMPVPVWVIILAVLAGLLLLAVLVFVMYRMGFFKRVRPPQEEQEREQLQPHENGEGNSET
T1 sequence (P05106 27-788): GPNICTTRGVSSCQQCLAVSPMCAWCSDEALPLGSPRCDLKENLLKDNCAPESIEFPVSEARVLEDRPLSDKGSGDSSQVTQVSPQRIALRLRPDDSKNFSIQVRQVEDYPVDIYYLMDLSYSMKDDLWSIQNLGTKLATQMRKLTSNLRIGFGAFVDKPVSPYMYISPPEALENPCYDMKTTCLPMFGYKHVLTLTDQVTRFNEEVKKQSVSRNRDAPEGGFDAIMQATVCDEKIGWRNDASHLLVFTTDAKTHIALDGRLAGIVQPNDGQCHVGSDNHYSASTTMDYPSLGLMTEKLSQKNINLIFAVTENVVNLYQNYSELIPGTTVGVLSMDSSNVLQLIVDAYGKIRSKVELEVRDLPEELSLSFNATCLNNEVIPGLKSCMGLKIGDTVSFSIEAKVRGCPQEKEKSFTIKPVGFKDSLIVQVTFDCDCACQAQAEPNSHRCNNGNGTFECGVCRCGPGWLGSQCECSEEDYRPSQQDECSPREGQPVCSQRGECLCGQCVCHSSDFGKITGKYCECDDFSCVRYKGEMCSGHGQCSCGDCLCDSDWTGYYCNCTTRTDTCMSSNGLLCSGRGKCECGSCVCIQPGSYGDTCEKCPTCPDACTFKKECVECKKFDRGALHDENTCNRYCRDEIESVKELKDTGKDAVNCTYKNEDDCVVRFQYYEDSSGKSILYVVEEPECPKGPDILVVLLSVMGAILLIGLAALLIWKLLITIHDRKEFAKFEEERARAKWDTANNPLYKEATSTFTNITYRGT
Experimental: For use in cell adhesion experiments, SW480 cells, a human colon cancer cell line not expressing integrin β3, were genetically engineered to stably express human integrin β3 (Nanri Y, et al. Am J Respir Cell Mol Biol. 62:204-216, 2020). The compounds shown in Table 1 were examined for their inhibitory activity against adhesion between integrin αvβ3 and periostin according to the following procedures. First, a 96-well plate was treated with 10 μg/mL recombinant human periostin (Bio-Techne) at 4 °C for 16 hours to immobilize periostin. The SW480 cells expressing integrin αvβ3 (5×10^4 cells) were reacted at room temperature for 15 minutes with the above compounds at 0.001, 0.01, 0.1 and 1 μM in serum-free DMEM (Dulbecco's Modified Eagle Medium) containing 0.5% bovine serum albumin and 0.25 mM MnCl2. A group receiving no compound was used as a control. The reacted cell suspensions were added to separate wells of the above human periostin-immobilized plate, and the plate was centrifuged at 10×g for 5 minutes and then cultured at 37 °C for 60 minutes. Then, after the adhered cells were washed to remove unbound cells, the adhered cells were fixed with 1% formaldehyde and stained with 0.5% crystal violet. The fixed and stained cells were solubilized with 0.2% Triton X-100 and measured for absorbance at 595 nm. The absorbance of the control (i.e., the group receiving no compound) was set to 0% inhibition. […] Cell adhesion in this test system is periostin-dependent, and a compound inhibiting this cell adhesion can be referred to as a periostin receptor antagonist.

[3] = tested on: αvβ3 integrin; conditions: cited from earlier work

- IC50 ([2]; SW480 cells expressing human integrin β3, compounds at 0.001-1 μM, read-out: 50% inhibition concentration (IC50 value) for cell adhesion inhibitory activity): ≤ 1 nM
- cell adhesion inhibitory effect (in words) ([2]; SW480 cells expressing integrin αvβ3): high
SMILES: COc1cc(C(=O)NC[C@H](NS(=O)(=O)c2ccccc2)C(=O)O)ccc1N1CCC(NC2=NCCCN2)CC1 [CP4715, (S)-3-(3-methoxy-4-(4-((1,4,5,6-tetrahydropyrimidin-2-yl)amino)piperidin-1-yl)benzamido)-2-(phenylsulfonamido)propanoic acid]
- time after administration until which the suppressive effect on scratching was sustained [1]: 60 min
- scratching behaviors (number of scratchings per minute) ([1]; at 20 minutes or later after administration, Mann-Whitney's U-test vs diluent control): significantly suppressed (P<0.05)
- antagonistic effect on αvβ3 integrin [3]: antagonistic effect
